Results from patent US20220339127A1, “DRUGGABLE TARGET TO TREAT RETINAL DEGENERATION” (The United States of America,as represented by the …, priority 2019, published 2022).
Entries after “also recorded” stand apart in the source; their conditions may differ.

What was measured:
Type in all cases: cell-based, human
iRPE cells [1] = assay: A23187 cytotoxicity on iRPE cells (CellTitrGlo ATP release)
Text: It was hypothesized that the loss of epithelial phenotype/RPE dedifferentiation is a key AMD cellular phenotype and easier to set up for a high throughput screen. Drugs that would suppress RPE dedifferentiation and recover the epithelial phenotype in cells might also work to rescue additional AMD cellular endophenotypes. Drug screen was designed using a calcium-ionophore A23187 instead of CC-HS serum, for three reasons: 1) CC-HS lost activity in liquid handler tubing used for medium change, likely because active complement proteins were absorbed on the walls of liquid handler tubes; 2) Similar to A23187, CC-HS treatment of iRPE also led to a defect in intracellular calcium homeostasis.
10 μM concentration of A23187 was selected for the drug screening, because it provided a bigger margin for cell death rescue. A commercially available library of pharmaceutically active compounds (LOPAC) with 1280 drugs was used for the screen at two different concentrations 9.2 μM and 46 μM. […]

iRPE cells [2] = assay: Proteotoxic high throughput screen (LOPAC) and follow up screen: survival of A23187 treated iRPE; conditions: seven-point dose curve; A23187 2.5, 5, 10 μM; two iRPE samples
Experimental: 10 μM concentration of A23187 was selected for the drug screening, because it provided a bigger margin for cell death rescue. […] Drug treatment along with the stressor, 10 μM A23187 were added on to iRPE cells matured in 384-well plates and cell death was scored 48 hours later by ATP release using the CellTitrGlo assay.
To distinguish false positives from the real signal, a follow up screen on all of the 45 drugs using iRPE derived from two different iPSC lines was performed. The follow up screen was performed at three different A23187 concentrations (2.5, 5, 10 μM) and with seven different concentrations of drugs ranging from 10 nM-1 mM (FIG. 13D-F). […] Overall, the HTS screen provided two drugs for testing in the in vitro AMD model.

AMPK = assay: Phospho-AMPK ELISA in iPSC-RPE of L-ORD patients and unaffected siblings; conditions: for p-AMPK levels: 0% serum, 2 mM AICAR or 500 nM BAM15
Experimental: Thus, in FIG. 16b iPSC-RPE were incubated with recombinant CTRP5 globular form (0.2 μg/mL gCTRP5) for 30 min in the presence (+) and absence (−) of serum to evaluate its role in AMPK signaling.
To better elucidate the ADIPOR1-CTRP5 (receptor-ligand) interaction, […] a ligand dose response curve was performed (in serum free media) by exogenously adding increasing concentrations of recombinant full length CTRP5 (FIG. 16c).
AMPK is a sensitive indicator of the cell energy status and is canonically activated by the levels of AMP or ATP (Hardie and Lin, 2017). Therefore, the AMPK activity (in serum free media) of sibling and patient iPSC-RPE under conditions (increased AMP:ATP ratio) known to stimulate AMPK phosphorylation was characterized (FIG. 16d). iPSC-RPE were incubated in serum deprived media for 5 hours (Park et al., 2009) followed by 30 mins exposure to AICAR (an AMP analogue) or BAM15 (a mitochondrial uncoupler to reduce ATP production).
Metformin treatment consisted of 3 mM metformin added to the apical and basal media for 1½- 2 weeks.

ABCA1 = assay: Bodipy lipid deposits in CC-HS treated Stargardt iRPE with ABCA1 activator; conditions: 10 μM
Text: 115(36): p. 9014-9019]. […] To further understand the ABCA4 driven mechanism in disease pathogenesis, this example focuses on ABCA1- an ABCA4 homolog, involved in cholesterol transport. […] Journal of Biological Chemistry, 2013. 288(48): p. 34414-34426, Tanaka, A. R., et al., Human ABCA1 contains a large amino-terminal extracellular domain homologous to an epitope of Sjögren's Syndrome. Biochemical and biophysical research communications, 2001. 283(5): p. 1019-1025, Storti, F., et al., Impaired ABCA1/ABCG1-mediated lipid efflux in the mouse retinal pigment epithelium (RPE) leads to retinal degeneration. Elife, 2019. 8: p. e45100.]. To determine if both ABCA proteins work through the lipid handling pathway, the effects of modulating ABCA1 expression on changes the disease phenotype in Stargardt RPE cells was observed. An shRNA knockdown of ABCA1 in ABCA4 iRPE cells was performed and the cells were treated with CC-HS. […] (FIG. 34A-G), In contrast, lipid accumulation defects in Stargardt RPE cells were rescued by ABCA1 overactivation using GW3965 (ABCA1 activator) (FIG. 34 H-N).

iRPE monolayer = assay: Transepithelial resistance (TER) of CC-HS treated iRPE monolayer; conditions: compstatin 10 μM and PMX053 10 μM used together in CC-HS
Text: Lastly, it was checked if the drugs rescued mature RPE phenotype and RPE functionality.

iRPE cells [3] = assay: Sub-RPE APOE deposits in CC-HS treated iRPE with receptor blockers; conditions: concurrent use of compstatin 10 μM (C3aR1 blocker) and PMX053 10 μM (C5aR1 blocker) in CC-HS
Text: It was hypothesized that CC-HS triggered AMD cellular phenotypes in iRPE cells are generated by the anaphylatoxin arm of the complement pathway via C3a-C3aR1 and C5a-05aR1 signaling induced intracellular inflammation (Fernandez-Godino and Pierce 2018). RNAseq confirmed the expression of both receptors in iRPE cells with ˜30× higher expression in of C5aR1 as compared to C3aR1 (FIG. 10A). Furthermore, the expression of both receptors increases with CC-HS treatment. Western blot confirmed C3aR1 and C5aR1 receptors localization in the membrane fraction of iRPE cells (FIG. 2A). […] To verify that CC-HS activates C3aR and C5aR signaling in iRPE cells, samples were checked for phosphorylation of AKT and ERK1/2, the two key kinases downstream of C3aR1 and C5aR1 receptors (Hajishengallis and Lambris 2010; Zhu et al 2015 Mol Vis; Busch et al 2017 Front. In Immu.). […] Furthermore, consistent with the predominant apical localization of C3aR1 and C5aR1, apical only treatment of CC-HS caused a 4.5-5×TER drop (p<10^−16), similar to the combined apical/basal treatment of CC-HS. In contrast, basal only treatment of CC-HS resulted only in a 2×TER drop (p<10^−16) (FIG. 2H). To further dissect the role of C5aR1 and C3aR1 signaling in inducing AMD cellular phenotypes in iRPE cells, a depleted sera and receptor blocker strategy was employed. […]

[4] = unaffected siblings, 5h 0% serum, 30 min, 25 ug/mL

## CNc1ccc2oc(C[C@H]3O[C@@]4(CC[C@H]3C)O[C@H]([C@H](C)C(=O)c3ccc[nH]3)[C@H](C)C[C@H]4C)nc2c1C(=O)O [A23187]
iRPE cells [1]; 2.5 μM A23187, 48 hours
  cell death: 50%
iRPE cells [1]; 96 hours, 2.5, 10, 25 μM A23187
  toxicity to iRPE cells: completely toxic; also recorded: cytotoxic

## COc1cc2ncnc(Nc3cccc(Cl)c3)c2cc1OC [AG-1478]
iRPE cells [2]
  cytoprotective activity in follow up screen: linear response the seven-point dose curve and reproducibility between two different iRPE samples

## NC(=O)c1ncn([C@@H]2O[C@H](CO)[C@@H](O)[C@H]2O)c1N [AICAR]
AMPK; L-ORD patient RPE, 30 min
  p-AMPK levels: insensitive
AMPK; unaffected siblings, 30 min
  p-AMPK levels: stimulates further phosphorylation of AMPK; also recorded: further elevation in AMPK levels

## Fc1ccccc1Nc1nc2nonc2nc1Nc1ccccc1F [BAM15]
AMPK; L-ORD patient RPE, 30 min
  p-AMPK levels: insensitive
AMPK; unaffected siblings, 30 min
  p-AMPK levels: further stimulates phosphorylation of AMPK; also recorded: further elevation in AMPK levels

## O=C(O)Cc1cccc(OCCCN(Cc2cccc(C(F)(F)F)c2Cl)CC(c2ccccc2)c2ccccc2)c1 [GW3965]
ABCA1
  intra/sub-RPE bodipy-positive lipid deposits: rescued
ABCA1; listed as GW 3965
  intra/sub-RPE bodipy-positive lipid deposits: reduced lipid deposit

## CC[C@H](C)[C@H](N)C(=O)N[C@H]1CSSC[C@@H](C(=O)N[C@H](C(N)=O)[C@@H](C)O)NC(=O)[C@H](CCCN=C(N)N)NC(=O)[C@H](Cc2cnc[nH]2)NC(=O)[C@H](Cc2cnc[nH]2)NC(=O)CNC(=O)[C@H](Cc2c[nH]c3ccccc23)NC(=O)[C@H](CC(=O)O)NC(=O)[C@H](CCC(N)=O)NC(=O)[C@H](C(C)C)NC(=O)[C@H](C(C)C)NC1=O [compstatin]
iRPE monolayer
  higher iRPE monolayer TER compared to CC-HS treated samples: 5 ×
iRPE cells [3]
  lower sub-RPE APOE deposits compared to CC-HS plus vehicle: 2 ×

B1: recombinant full length CTRP5: recombinant full length CTRP5 (protein, UniProt Q9BXJ0 1-243, looked up)
chain: MRPLLVLLLLGLAAGSPPLDDNKIPSLCPGHPGLPGTPGHHGSQGLPGRDGRDGRDGAPGAPGEKGEGGRPGLPGPRGDPGPRGEAGPAGPTGPAGECSVPPRSAFSAKRSESRVPPPSDAPLPFDRVLVNEQGHYDAVTGKFTCQVPGVYYFAVHATVYRASLQFDLVKNGESIASFFQFFGGWPKPASLSGGAMVRLEPEDQVWVQVGVGDYIGIYASIKTDSTFSGFLVYSDWHSSPVFA
modifications: full-length
AMPK; L-ORD patient RPE, similar concentrations, serum free
  change in p-AMPK levels: had no effect on AMPK activity; also recorded: no measurable change
AMPK; [4]
  p-AMPK level: 47.89%±0.13
  reduction in p-AMPK levels: 50%
